Consider three compounds from US12479847B2 (DANA-FARBER CANCER INSTITUTE, INC., priority 2019, dated 2025).

Common to all, as to assay: KINOMEscan (ScanMAX) kinase profiling
Type in all cases: binding

Test [1] deals with T1, panel of 468 kinases (Homo sapiens, UniProt O96017).
T1 construct: purchased KINOMEscan (ScanMAX) service
Particulars: CHEK2; 1 μM; read-out: % control.

Test [2] deals with T2, panel of 468 kinases (Homo sapiens, UniProt P42684).
T2 construct: purchased KINOMEscan (ScanMAX) service
Particulars: ABL2; 1 μM; read-out: % control.

The target of test [3] is T3, panel of 468 kinases (Homo sapiens, UniProt Q13555).
T3 construct: purchased KINOMEscan (ScanMAX) service
Particulars: CAMK2G; 1 μM; read-out: % control.

Test [4] has as its target T4, panel of 468 kinases (Homo sapiens, UniProt Q13873).
T4 construct: purchased KINOMEscan (ScanMAX) service
T4 sequence (Q13873 27-1038): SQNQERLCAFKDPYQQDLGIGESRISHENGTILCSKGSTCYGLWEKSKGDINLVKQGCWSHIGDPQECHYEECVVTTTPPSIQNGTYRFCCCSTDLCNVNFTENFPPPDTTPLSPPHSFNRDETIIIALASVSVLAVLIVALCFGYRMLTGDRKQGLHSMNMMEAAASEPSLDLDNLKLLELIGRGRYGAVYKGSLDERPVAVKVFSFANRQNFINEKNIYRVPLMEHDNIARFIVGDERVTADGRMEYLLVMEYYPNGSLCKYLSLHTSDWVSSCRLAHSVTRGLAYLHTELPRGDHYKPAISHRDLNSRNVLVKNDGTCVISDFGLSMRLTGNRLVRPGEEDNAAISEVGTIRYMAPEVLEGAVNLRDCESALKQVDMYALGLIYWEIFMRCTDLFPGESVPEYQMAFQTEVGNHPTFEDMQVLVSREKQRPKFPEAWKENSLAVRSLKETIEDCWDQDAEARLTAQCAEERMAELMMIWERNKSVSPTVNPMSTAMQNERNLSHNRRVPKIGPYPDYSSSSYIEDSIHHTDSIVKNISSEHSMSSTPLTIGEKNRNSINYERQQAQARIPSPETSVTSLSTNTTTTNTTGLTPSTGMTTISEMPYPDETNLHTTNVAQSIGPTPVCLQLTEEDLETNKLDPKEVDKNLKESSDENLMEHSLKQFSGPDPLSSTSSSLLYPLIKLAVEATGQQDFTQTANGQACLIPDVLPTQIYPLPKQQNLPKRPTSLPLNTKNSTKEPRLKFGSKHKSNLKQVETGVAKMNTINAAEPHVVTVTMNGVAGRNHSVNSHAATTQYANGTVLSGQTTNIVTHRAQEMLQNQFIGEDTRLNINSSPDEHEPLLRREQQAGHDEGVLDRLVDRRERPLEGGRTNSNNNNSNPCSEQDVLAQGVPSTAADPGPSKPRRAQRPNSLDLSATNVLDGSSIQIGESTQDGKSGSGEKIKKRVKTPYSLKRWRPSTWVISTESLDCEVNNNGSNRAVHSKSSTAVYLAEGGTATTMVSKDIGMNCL
The settings on record: BMPR2; 1 μM; read-out: % control.

In test [5] the target is T5, panel of 468 kinases (Homo sapiens, UniProt Q52WX2).
T5 construct: purchased KINOMEscan (ScanMAX) service
The settings on record: SBK1; 1 μM; read-out: % control.

In test [6] the target is T6, panel of 468 kinases (Homo sapiens, UniProt Q9BYP7).
T6 construct: purchased KINOMEscan (ScanMAX) service
The settings on record: WNK3; 1 μM; read-out: % control.

Test [7] addresses T7, panel of 468 kinases (Homo sapiens, UniProt Q9H4A3).
T7 construct: purchased KINOMEscan (ScanMAX) service
The settings on record: WNK1; 1 μM; read-out: % control.

Test [8] has as its target T8, panel of 468 kinases (Homo sapiens, UniProt Q9UEE5).
T8 construct: purchased KINOMEscan (ScanMAX) service
T8 sequence (Q9UEE5 1-414): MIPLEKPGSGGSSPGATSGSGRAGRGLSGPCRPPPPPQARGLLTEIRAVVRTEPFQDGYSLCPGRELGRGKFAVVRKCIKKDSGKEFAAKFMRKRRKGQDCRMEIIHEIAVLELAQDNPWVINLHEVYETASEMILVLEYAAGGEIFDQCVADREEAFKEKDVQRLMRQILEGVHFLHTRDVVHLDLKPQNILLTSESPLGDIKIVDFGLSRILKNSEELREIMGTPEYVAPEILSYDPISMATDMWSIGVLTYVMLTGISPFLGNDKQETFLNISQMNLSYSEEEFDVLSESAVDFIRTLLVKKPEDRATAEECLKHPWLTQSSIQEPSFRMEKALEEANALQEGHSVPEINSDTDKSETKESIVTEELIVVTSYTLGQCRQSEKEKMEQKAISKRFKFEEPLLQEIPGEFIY
The settings on record: DRAK1; 1 μM; read-out: % control.

Test [9] concerns the target T9, panel of 468 kinases (Homo sapiens, UniProt Q9UPZ9).
T9 construct: purchased KINOMEscan (ScanMAX) service
T9 sequence (Q9UPZ9 1-632): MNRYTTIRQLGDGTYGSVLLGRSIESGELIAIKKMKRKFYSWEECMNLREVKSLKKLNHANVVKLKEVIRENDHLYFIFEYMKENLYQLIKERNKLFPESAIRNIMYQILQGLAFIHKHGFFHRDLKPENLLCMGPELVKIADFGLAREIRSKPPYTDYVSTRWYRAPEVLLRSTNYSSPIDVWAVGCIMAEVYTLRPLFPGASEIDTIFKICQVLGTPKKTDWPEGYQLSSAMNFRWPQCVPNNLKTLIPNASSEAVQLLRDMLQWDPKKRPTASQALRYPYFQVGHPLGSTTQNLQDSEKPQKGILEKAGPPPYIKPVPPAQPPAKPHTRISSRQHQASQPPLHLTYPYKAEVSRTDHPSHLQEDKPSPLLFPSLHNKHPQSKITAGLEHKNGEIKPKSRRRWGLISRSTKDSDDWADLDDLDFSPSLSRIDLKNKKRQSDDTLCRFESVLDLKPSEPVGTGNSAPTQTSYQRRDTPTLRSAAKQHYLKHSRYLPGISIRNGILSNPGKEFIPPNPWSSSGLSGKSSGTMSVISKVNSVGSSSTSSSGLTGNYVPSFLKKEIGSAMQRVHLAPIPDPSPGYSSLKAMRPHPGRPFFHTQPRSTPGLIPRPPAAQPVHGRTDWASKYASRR
The settings on record: ICK; 1 μM; read-out: % control.

T7 sequence (Q9H4A3 whole entry): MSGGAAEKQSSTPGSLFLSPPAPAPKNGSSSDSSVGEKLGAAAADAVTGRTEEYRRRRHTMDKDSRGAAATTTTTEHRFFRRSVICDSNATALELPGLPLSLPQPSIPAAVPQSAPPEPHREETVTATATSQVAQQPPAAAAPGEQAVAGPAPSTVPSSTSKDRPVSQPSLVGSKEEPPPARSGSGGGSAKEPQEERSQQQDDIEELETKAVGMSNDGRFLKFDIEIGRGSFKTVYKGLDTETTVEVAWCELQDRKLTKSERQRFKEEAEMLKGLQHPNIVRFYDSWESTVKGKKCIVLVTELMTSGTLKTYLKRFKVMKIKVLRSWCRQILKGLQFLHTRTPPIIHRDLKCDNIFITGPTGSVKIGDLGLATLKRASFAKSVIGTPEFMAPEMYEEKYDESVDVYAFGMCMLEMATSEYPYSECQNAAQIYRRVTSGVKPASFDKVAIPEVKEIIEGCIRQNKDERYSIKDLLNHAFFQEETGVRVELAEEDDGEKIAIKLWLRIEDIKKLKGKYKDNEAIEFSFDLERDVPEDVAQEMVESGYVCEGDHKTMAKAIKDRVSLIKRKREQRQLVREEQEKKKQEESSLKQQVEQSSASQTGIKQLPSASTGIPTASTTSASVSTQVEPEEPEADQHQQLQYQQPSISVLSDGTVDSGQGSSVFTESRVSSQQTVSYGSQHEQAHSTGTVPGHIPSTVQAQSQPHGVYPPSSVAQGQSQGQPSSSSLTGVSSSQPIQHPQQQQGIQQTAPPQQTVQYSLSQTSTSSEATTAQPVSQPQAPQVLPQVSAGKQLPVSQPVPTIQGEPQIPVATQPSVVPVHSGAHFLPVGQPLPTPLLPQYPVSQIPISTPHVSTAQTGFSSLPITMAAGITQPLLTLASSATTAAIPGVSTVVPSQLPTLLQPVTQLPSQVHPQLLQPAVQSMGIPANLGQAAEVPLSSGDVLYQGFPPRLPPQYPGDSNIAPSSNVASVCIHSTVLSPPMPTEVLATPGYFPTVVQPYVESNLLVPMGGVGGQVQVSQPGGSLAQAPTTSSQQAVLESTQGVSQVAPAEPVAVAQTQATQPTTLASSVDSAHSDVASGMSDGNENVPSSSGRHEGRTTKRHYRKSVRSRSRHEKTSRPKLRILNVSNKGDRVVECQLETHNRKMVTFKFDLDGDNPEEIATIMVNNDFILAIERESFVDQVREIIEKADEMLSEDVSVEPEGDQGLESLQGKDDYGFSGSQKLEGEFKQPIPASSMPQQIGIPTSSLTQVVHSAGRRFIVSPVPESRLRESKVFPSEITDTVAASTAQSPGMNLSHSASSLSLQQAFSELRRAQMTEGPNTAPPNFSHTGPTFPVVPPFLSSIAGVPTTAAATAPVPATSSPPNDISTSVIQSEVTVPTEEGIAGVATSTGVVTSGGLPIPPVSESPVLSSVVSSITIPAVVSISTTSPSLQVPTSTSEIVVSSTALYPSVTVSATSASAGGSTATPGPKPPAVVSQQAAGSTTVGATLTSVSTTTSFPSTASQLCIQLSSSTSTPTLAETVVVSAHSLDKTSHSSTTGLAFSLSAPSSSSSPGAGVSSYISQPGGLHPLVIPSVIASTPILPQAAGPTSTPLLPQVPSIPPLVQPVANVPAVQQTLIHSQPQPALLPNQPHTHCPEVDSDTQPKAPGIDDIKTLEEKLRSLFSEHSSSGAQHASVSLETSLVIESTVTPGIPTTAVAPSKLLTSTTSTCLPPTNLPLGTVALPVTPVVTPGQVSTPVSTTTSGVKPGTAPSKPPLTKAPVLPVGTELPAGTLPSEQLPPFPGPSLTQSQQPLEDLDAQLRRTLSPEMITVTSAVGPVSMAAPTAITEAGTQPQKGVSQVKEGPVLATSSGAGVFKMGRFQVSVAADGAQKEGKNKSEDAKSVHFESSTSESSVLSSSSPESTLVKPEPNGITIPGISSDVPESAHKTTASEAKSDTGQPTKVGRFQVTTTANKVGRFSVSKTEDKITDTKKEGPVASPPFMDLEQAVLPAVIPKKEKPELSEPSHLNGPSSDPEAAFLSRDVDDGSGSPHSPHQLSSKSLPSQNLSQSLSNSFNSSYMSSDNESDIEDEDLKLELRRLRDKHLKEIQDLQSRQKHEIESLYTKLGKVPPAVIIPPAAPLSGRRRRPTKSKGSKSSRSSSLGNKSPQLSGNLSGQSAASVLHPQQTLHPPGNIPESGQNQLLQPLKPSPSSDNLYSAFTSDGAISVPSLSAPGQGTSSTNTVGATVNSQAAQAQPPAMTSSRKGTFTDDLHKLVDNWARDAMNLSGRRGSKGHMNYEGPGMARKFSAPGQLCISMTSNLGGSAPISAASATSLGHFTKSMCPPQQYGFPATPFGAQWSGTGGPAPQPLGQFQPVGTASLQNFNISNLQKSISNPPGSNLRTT
T3 sequence (Q13555 whole entry): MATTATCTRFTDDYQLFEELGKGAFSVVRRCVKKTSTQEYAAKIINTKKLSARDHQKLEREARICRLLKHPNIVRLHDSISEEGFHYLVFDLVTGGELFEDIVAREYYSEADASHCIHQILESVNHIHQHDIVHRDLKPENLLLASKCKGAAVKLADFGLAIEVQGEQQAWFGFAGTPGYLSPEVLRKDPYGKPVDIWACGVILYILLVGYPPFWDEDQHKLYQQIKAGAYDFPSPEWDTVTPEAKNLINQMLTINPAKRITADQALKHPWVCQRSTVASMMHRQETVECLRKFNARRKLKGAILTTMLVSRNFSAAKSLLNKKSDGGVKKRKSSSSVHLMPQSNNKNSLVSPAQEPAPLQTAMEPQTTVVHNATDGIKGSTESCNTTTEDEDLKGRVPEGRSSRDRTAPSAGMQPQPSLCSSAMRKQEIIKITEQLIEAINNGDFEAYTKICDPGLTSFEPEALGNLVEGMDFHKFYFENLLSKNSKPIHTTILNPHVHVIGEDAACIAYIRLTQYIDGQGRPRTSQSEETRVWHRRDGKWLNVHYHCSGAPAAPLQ
T5 sequence (Q52WX2 whole entry): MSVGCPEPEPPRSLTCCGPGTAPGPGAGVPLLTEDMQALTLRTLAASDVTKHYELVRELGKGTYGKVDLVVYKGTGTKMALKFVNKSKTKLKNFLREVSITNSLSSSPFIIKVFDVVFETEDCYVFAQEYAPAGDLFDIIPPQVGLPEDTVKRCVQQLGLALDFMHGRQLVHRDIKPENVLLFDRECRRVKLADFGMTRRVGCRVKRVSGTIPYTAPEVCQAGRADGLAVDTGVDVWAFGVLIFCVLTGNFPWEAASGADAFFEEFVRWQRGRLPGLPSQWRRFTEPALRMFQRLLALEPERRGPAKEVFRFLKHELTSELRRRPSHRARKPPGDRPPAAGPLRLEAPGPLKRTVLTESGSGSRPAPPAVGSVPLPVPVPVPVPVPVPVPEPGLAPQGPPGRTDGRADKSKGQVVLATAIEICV
T2 sequence (P42684 whole entry): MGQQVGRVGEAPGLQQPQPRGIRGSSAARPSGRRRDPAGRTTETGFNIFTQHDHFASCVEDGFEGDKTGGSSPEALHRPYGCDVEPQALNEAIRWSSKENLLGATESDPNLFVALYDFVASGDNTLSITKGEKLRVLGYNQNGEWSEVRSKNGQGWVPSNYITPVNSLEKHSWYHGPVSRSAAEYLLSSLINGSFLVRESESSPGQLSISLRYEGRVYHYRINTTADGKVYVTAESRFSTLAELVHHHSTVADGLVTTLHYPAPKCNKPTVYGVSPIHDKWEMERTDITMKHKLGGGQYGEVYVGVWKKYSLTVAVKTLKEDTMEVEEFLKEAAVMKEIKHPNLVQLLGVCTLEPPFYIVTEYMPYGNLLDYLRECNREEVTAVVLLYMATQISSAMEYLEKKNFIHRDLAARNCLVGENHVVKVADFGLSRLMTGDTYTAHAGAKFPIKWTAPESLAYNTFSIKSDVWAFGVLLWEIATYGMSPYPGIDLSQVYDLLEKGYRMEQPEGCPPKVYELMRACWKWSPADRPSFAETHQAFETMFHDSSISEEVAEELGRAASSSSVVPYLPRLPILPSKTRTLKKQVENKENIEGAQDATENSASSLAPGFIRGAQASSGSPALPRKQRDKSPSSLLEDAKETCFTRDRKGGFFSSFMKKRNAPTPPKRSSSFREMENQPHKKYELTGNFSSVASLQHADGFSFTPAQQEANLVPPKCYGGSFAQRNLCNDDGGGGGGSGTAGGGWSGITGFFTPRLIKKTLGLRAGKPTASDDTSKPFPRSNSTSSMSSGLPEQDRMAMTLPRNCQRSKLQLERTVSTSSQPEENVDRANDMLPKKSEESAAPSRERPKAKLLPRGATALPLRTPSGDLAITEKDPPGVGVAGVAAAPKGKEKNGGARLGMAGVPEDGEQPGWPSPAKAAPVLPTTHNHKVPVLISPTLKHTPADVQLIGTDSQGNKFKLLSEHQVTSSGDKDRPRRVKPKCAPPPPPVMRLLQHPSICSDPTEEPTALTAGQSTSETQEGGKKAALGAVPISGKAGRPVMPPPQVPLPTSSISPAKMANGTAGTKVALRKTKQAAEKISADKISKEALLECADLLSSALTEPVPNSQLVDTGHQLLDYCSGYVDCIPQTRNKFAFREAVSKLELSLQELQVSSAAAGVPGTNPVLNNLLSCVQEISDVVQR
T1 sequence (O96017 whole entry): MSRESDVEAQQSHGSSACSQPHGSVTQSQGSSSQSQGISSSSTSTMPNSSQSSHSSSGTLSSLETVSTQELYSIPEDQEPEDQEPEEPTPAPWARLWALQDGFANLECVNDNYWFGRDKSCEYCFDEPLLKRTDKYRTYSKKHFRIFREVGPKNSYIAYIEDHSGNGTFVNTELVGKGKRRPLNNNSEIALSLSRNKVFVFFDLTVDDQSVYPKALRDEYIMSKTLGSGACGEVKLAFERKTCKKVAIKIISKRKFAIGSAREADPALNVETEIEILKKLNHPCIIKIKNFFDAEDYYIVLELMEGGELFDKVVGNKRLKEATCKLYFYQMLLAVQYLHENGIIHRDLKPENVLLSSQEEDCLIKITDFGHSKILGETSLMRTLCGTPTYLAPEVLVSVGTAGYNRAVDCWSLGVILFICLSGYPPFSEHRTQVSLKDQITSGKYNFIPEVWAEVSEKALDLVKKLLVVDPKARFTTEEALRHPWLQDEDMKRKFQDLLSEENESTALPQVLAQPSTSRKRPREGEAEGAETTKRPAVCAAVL

As for `CNc1nc(Nc2ccc(C(=O)N3CCC(N4CCOCC4)CC3)c3c2OCO3)nc2[nH]cc(Cl)c12` [Compound 75, (7-((5-chloro-4-(methylamino)-7H-pyrrolo[2,3-d]pyrimidin-2-yl)amino)benzo[d][1,3]dioxol-4-yl)(4-morpholinopiperidin-1-yl)methanone], the remaining binding at 1 µM at panel of 468 kinases [1] amounted to 0.95%; on panel of 468 kinases [2] it was 100%; at panel of 468 kinases [3], 100%; at panel of 468 kinases [4], 92%; on panel of 468 kinases [5] it was 64%; at panel of 468 kinases [6], 93%. The remaining binding at 1 µM came to 100% on panel of 468 kinases [7], 2.8% on panel of 468 kinases [8] and 89% at panel of 468 kinases [9].

As to `CNc1nc(Nc2ccc(P3(=O)CCN(C4CCOCC4)CC3)cc2OC)nc2[nH]cc(Cl)c12` [Compound 77, 4-(4-((5-chloro-4-(methylamino)-7H-pyrrolo[2,3-d]pyrimidin-2-yl)amino)-3-methoxyphenyl)-1-(tetrahydro-2H-pyran-4-yl)-1,4-azaphosphinane 4-oxide], the remaining binding at 1 µM worked out at 0.7% on panel of 468 kinases [1]; 100% at panel of 468 kinases [2]; 97% on panel of 468 kinases [3]; 85% on panel of 468 kinases [4]; 68% on panel of 468 kinases [5]; 98% at panel of 468 kinases [6]. In addition, the remaining binding at 1 µM was 91% on panel of 468 kinases [7], 95% at panel of 468 kinases [8] and 85% on panel of 468 kinases [9].

As to `CNc1nc(Nc2ccc(S(=O)(=O)N3CCC(N4CCOCC4)CC3)cc2OC)nc2[nH]cc(Cl)c12` [Compound 12, 5-chloro-N2-(2-methoxy-4-((4-morpholinopiperidin-1-yl)sulfonyl)phenyl)-N4-methyl-7H-pyrrolo[2,3-d]pyrimidine-2,4-diamine], the remaining binding at 1 µM at panel of 468 kinases [1] amounted to 1.8%; on panel of 468 kinases [2], 78%; at panel of 468 kinases [3], 100%; on panel of 468 kinases [4] it was 97%; at panel of 468 kinases [5], 77%; on panel of 468 kinases [6] it was 100%. For the same compound, the remaining binding at 1 µM was determined as 100% at panel of 468 kinases [7], 100% at panel of 468 kinases [8] and 77% at panel of 468 kinases [9].
